Test systems include HT-29; TK-10; NCI-H522; SK-MEL-2; UACC-62; M14; OVCAR-3; HOP-92; 786-0; SF-295; UACC-257; HCC 2998; SN12C; IGROV-1; HCT-15; UO-31.
Holding throughout (assay): DTP human tumour cell line panel, 48 h

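Exposure lasted 48 hours, with cells grown in 96-well plates and compounds tested at five concentrations. Here, GI50 denotes the concentration required for 50% inhibition of growth.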 The source made the active and inactive calls. Cut-off read from the data, not from the text of the source: active = GI50 up to about 1.1 µM and inactive = higher.

As for `CC(=O)O/C=C(/C=C/OC(C)=O)C(C/C=C(\C)C#CC=C(C)C)OC(C)=O` (stereo not drawn), the GI50 in the test with HT-29 is 30.7 µM (inactive); in the test with TK-10 it was > 100 µM (inactive); in the test with NCI-H522, 25.2 µM (inactive); with SK-MEL-2 it was > 100 µM (inactive); in the test with UACC-62 it was 27.4 µM (inactive); with M14 it was 34.1 µM (inactive). In addition, the GI50 with OVCAR-3 was 24.2 µM (inactive); in the test on HOP-92, 36.6 µM (inactive); in the test with 786-0, 36.6 µM (inactive); with SF-295, 61.5 µM (inactive); with UACC-257, 33.7 µM (inactive); in the test with HCC 2998, > 100 µM (inactive). Moreover, the GI50 with SN12C is 36.6 µM (inactive); in the test on IGROV-1, 30.4 µM (inactive); in the test on HCT-15, 17.7 µM; in the test with UO-31, 58.2 µM (inactive).

Turning to `FC(F)(F)c1ccc2c(c1)N(CCCNCCN1CCOCC1)c1ccccc1S2`, the GI50 with HT-29 is 3.24 µM (inactive); in the test with TK-10, 12.7 µM (inactive); in the test with NCI-H522, 14.9 µM (inactive); with SK-MEL-2 it was 3.66 µM (inactive); with UACC-62, 13.2 µM (inactive); with M14, 1.95 µM (inactive). Further, the GI50 in the test with OVCAR-3 is 11.4 µM (inactive); with HOP-92, 3.4 µM (inactive); in the test on SF-295, 13.3 µM (inactive); with UACC-257 it was 10.9 µM (inactive); with HCC 2998 it was 2.23 µM (inactive); in the test on SN12C, 13.3 µM (inactive). Besides, the GI50 with IGROV-1 was 15.8 µM (inactive); in the test with HCT-15, 6.52 µM; in the test with UO-31, 3.83 µM (inactive).

For the compound `Cc1cccc(C)c1NC(=O)CCc1nnc2s/c(=C\c3ccc(N(C)C)cc3)c(=O)n12`, the GI50 with HT-29, with TK-10, in the test on NCI-H522, in the test on SK-MEL-2, in the test on UACC-62 and with M14 was > 100 µM (inactive) each time. In addition, the GI50 with OVCAR-3 is 56.1 µM (inactive); in the test on HOP-92, > 100 µM (inactive); with 786-0, > 100 µM (inactive); in the test on SF-295 it was 56.1 µM (inactive); in the test on UACC-257, > 100 µM (inactive); with HCC 2998, > 100 µM (inactive). For the same compound, the GI50 was > 100 µM (inactive) in the test on SN12C, > 100 µM (inactive) with IGROV-1, over 100 µM with HCT-15 and > 100 µM (inactive) with UO-31.

On to `CCCCS(=O)(=O)Nc1ccc(Nc2c3ccccc3nc3ccccc23)c(OC)c1`, for which the GI50 is 1.67 µM (inactive) in the test on HT-29; 5.33 µM (inactive) in the test with NCI-H522; 16.9 µM (inactive) in the test on SK-MEL-2; 1.78 µM (inactive) with UACC-62; 6.98 µM (inactive) with OVCAR-3; 2.15 µM (inactive) with HOP-92. For the same compound, the GI50 is 0.902 µM (active) in the test on SF-295; 6 µM (inactive) in the test on UACC-257; 3.21 µM (inactive) with HCC 2998; 0.828 µM (active) in the test with SN12C; 5.57 µM (inactive) in the test with IGROV-1; 1.71 µM with HCT-15. Further, the GI50 in the test with UO-31 is 1.5 µM (inactive).

In the case of `Cn1nc2ccc3nccc(N(CCO)CCO)c3c2n1`, the GI50 in the test on HT-29, in the test on TK-10, in the test on NCI-H522, in the test with SK-MEL-2, in the test with UACC-62 and in the test on M14 was > 100 µM (inactive) in each case. The GI50 in the test with OVCAR-3, with HOP-92, in the test on 786-0, in the test on SF-295, in the test with UACC-257 and with HCC 2998 was > 100 µM (inactive) each time. Also, the GI50 with SN12C is > 100 µM (inactive); in the test with IGROV-1, > 100 µM (inactive); in the test with HCT-15 it was over 100 µM; with UO-31, > 100 µM (inactive).

For `[O-][S+]1c2ccccc2N=C(c2ccc(Cl)cc2)CC1c1cccs1` (stereo not drawn), the GI50 with HT-29 is 17.3 µM (inactive); in the test on TK-10, 39.3 µM (inactive); in the test with NCI-H522, 27.4 µM (inactive); in the test on UACC-62 it was 15.7 µM (inactive); in the test on M14 it was 15.5 µM (inactive); in the test on OVCAR-3, 1.68 µM (inactive). The GI50 with HOP-92 was 19.7 µM (inactive); with 786-0 it was 15 µM (inactive); in the test with SF-295, 16.6 µM (inactive); in the test on UACC-257 it was 23.2 µM (inactive); with HCC 2998, 16.3 µM (inactive); with SN12C it was 19 µM (inactive). For the same compound, the values for the GI50 with IGROV-1, in the test on HCT-15 and in the test with UO-31 were 14.8 µM (inactive), 15.5 µM and 17.7 µM (inactive), respectively.

In the case of `Cc1cc(O)c2c(c1)C(=O)c1c(c(O)cc(O)c1-c1c(O)cc(O)c3c1C(=O)c1cc(C)cc(O)c1C3=O)C2=O` [SKYRIN], the GI50 in the test on HT-29 is 13.1 µM (inactive); in the test with NCI-H522, 17.1 µM (inactive); with SK-MEL-2, 11.5 µM (inactive); in the test on UACC-62, 10.4 µM (inactive); with OVCAR-3, 6.31 µM (inactive); in the test on HOP-92 it was 13.1 µM (inactive). Also, the GI50 in the test with SF-295 was 9.25 µM (inactive); with UACC-257, 17.5 µM (inactive); in the test on HCC 2998, 11.4 µM (inactive); in the test with SN12C, 10.6 µM (inactive); in the test on IGROV-1, 12.9 µM (inactive); with HCT-15 it was 8.61 µM. In addition, the GI50 in the test on UO-31 was 5.26 µM (inactive).

Consider `CC(=O)O[C@H]1C=CC(=O)C(C)CC1C` (stereo partly drawn), for which the GI50 is > 100 µM (inactive) with HT-29; > 100 µM (inactive) in the test on TK-10; 37.9 µM (inactive) in the test with NCI-H522; > 100 µM (inactive) in the test with SK-MEL-2; > 100 µM (inactive) in the test with UACC-62; > 100 µM (inactive) in the test with M14. The GI50 with OVCAR-3, with HOP-92, with SF-295, in the test with UACC-257, in the test with HCC 2998 and in the test on SN12C was > 100 µM (inactive) throughout. The GI50 in the test on IGROV-1 and with UO-31 was > 100 µM (inactive) each time.

`C/C(=N/NC(=O)CC(=O)N(C(=O)c1ccccc1Cl)c1ccc(C)cc1)c1cc2ccccc2oc1=O`: the GI50 was > 100 µM (inactive) in the test with HT-29; 95.5 µM (inactive) with TK-10; > 100 µM (inactive) in the test on NCI-H522; > 100 µM (inactive) in the test on UACC-62; 65.3 µM (inactive) in the test on M14; > 100 µM (inactive) with OVCAR-3. Moreover, the GI50 in the test on HOP-92 is 21.5 µM (inactive); in the test on 786-0, > 100 µM (inactive); with SF-295, > 100 µM (inactive); with UACC-257, > 100 µM (inactive); with HCC 2998 it was > 100 µM (inactive); in the test with SN12C it was > 100 µM (inactive). For the same compound, the GI50 with IGROV-1 is > 100 µM (inactive); in the test on HCT-15, over 100 µM; with UO-31 it was > 100 µM (inactive).

For the compound `CC(C)OP(=O)(OC(C)C)c1nc(-c2ccccc2)n(-c2ccc([N+](=O)[O-])cc2)n1`, the GI50 in the test on HT-29 is > 100 µM (inactive); in the test with TK-10, > 100 µM (inactive); in the test with NCI-H522 it was 98.9 µM (inactive); in the test on SK-MEL-2, 50.8 µM (inactive); with UACC-62, > 100 µM (inactive); in the test on M14 it was > 100 µM (inactive). The GI50 in the test with OVCAR-3, in the test with HOP-92, in the test on SF-295, in the test on UACC-257, with HCC 2998 and with SN12C was > 100 µM (inactive) each time. In addition, the GI50 in the test with IGROV-1 is > 100 µM (inactive); with HCT-15, over 100 µM; in the test on UO-31 it was > 100 µM (inactive).

Values taken from ChEMBL document CHEMBL1201862, “PubChem BioAssay data set” (2004).
